Like-named read-outs stand apart in the source and are kept apart here.
Tests used:
[1] = tested on: human neuroblastoma SH-SY5Y cells; assay type: cell-based; details: for EC50: read-out: EC50 cell viability
[2] = tested on: human neuroblastoma SH-SY5Y cells; test: Cell degeneration by microscopy images of treated cells; assay type: cell-based; details: 24 h exposure, up to 200 μM
[3] = biological target: T1, porcine liver PMPMEase (Sus scrofa, UniProt Q29550); details: for IC50: PMPMEase 1 μg, 15 min pre-incubation at 37°C, RD-PNB substrate
T1 sequence (Q29550 19-566): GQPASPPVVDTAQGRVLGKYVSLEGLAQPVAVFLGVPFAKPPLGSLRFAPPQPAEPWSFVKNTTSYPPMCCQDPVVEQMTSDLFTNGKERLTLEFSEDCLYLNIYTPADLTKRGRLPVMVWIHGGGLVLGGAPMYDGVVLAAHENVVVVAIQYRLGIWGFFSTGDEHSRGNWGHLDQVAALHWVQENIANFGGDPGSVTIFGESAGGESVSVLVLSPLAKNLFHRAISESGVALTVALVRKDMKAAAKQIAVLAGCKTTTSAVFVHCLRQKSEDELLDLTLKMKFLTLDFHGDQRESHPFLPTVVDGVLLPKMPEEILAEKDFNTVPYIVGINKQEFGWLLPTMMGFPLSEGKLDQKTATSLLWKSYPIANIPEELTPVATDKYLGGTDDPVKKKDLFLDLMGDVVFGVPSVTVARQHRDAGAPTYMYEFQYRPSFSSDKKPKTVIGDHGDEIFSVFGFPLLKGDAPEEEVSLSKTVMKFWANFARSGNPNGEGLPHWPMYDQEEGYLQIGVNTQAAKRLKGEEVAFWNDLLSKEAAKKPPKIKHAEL

[4] = biological target: T1, porcine liver PMPMEase; details: for Kobs/[I]: PMPMEase 82.5 μg, pre-incubation 0-30 min, 100-fold dilution, RD-PNB substrate

## 2-trans-Geranylthioethanesulfonyl fluoride [Compound L-23]
[1]
  EC50: 144 µM
[2]
  Cell degeneration observed: extensive degeneration
[3]
  IC50 fold lower relative to PMSF: 56 fold
[4]
  Kobs/[I]: 4100 M⁻¹ s⁻¹
  Kobs/[I] fold higher relative to PMSF: over 680 fold

## O=S(=O)(F)Cc1ccccc1 [PMSF, phenylmethylsulfonyl fluoride, reference compound]
[1]; 24 h exposure
  Effect on viability of cultured cells: no significant effect
[2]
  Cell degeneration observed: did not show degeneration even at 200 μM

## CCCCCCCCCCSCCS(=O)(=O)F [Compound L-52, Decanylthioethanesulfonyl fluoride]
[3]
  IC50: 0.13 µM
[4]
  Kobs/[I]: 1800 M⁻¹ s⁻¹

## O=S(=O)(F)CCSCc1ccccc1 [Compound L-51, Benzylthioethanesulfonyl fluoride]
[3]
  IC50: 0.047 µM
[4]
  Kobs/[I]: 350 M⁻¹ s⁻¹
[4]; relative to L-28
  Kobs/[I] fold lower than that for L-28: over 5 fold

## O=S(=O)(F)CCSc1ccccc1 [Compound L-50, Phenylthioethanesulfonyl fluoride]
[3]
  IC50: 0.066 µM
[4]
  Kobs/[I]: 180 M⁻¹ s⁻¹

## CC(C)=CCC/C(C)=C/CC/C(C)=C/CSCCS(=O)(=O)F [Compound L-28, 2-trans, trans-Farnesylthioethanesulfonyl fluoride]
[1]; 24 h exposure, serum-free DMEM/F12
  EC50: 66.5 µM
[1]; 48 h exposure, serum-free DMEM/F12
  EC50: 24.3 µM
[1]; 72 h exposure, serum-free DMEM/F12
  EC50: 13.6 µM
[2]
  Cell degeneration observed: extensive degeneration
[3]
  IC50: 0.048 µM
  IC50 fold lower relative to PMSF: 37 fold
[4]
  Kobs/[I]: 2000 M⁻¹ s⁻¹
  Kobs/[I] fold higher relative to PMSF: > 330 fold
